Consider 3 molecules from PMC12615753, “Glutathione as a taste modulator: molecular mechanisms of interaction with umami and sweet taste receptors” (Food Chemistry: Molecular Sciences, 2025).

The term EC50 denotes the concentration that produces a half-maximal response.

For this experiment, the target named is T1, hTAS1R1/rTAS1R3(Mut1) (UniProt Q7RTX1+Q923K1, A277V/L68N/R278H/S168G/S302A).
T1 sequence (Q7RTX1 21-841): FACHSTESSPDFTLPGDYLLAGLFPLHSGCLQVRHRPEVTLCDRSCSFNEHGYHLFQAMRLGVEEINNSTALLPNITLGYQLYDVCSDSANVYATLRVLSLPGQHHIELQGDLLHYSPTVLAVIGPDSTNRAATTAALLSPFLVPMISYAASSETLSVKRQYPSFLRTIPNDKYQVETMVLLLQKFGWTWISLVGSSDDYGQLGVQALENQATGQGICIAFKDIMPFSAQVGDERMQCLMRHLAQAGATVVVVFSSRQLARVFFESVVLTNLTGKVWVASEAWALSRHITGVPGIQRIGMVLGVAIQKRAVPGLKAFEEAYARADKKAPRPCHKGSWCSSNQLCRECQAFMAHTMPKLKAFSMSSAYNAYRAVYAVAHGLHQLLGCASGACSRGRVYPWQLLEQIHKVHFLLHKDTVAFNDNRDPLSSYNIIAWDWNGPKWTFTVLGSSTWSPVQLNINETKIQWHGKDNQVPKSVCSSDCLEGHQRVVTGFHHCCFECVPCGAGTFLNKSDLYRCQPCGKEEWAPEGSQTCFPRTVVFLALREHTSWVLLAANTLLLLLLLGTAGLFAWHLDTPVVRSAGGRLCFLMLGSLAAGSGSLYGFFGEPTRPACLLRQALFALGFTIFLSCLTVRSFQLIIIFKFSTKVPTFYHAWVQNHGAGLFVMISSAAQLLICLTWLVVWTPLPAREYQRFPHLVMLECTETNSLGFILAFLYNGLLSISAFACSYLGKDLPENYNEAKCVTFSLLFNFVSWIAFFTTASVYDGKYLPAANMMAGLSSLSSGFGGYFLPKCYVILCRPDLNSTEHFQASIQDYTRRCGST
T1 sequence (Q923K1 21-858 L68N/S168G/A277V/R278H/S302A): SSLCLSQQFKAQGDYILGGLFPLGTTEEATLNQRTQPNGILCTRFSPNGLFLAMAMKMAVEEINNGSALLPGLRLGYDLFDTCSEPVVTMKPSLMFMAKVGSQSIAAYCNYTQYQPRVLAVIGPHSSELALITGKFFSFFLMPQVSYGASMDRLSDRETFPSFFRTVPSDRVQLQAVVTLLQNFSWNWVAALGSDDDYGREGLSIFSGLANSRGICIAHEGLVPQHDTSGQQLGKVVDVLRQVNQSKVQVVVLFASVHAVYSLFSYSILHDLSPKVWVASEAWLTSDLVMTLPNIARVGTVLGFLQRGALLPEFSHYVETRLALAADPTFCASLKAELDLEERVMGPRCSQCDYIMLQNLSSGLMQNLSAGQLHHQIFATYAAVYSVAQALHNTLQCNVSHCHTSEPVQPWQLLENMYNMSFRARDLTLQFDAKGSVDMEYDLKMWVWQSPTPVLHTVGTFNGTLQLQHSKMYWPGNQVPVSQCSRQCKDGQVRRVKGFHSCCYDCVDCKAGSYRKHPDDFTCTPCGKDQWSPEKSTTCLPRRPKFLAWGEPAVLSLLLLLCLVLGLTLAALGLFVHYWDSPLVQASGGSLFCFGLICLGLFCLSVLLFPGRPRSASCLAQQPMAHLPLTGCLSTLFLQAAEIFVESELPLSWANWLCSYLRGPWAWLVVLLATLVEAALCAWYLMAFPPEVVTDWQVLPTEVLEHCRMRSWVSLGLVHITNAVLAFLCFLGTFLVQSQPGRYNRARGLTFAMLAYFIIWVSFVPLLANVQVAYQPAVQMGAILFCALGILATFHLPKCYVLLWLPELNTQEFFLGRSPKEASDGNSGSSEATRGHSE
In words: Calcium assay, mutated rTAS1R3 co-expressed with hTAS1R1.

Procedure: HEK293T/17 cells (ATCC CRL-11268) were seeded into clear bottom black 96-well plates coated with poly-D-lysine at a density of 32500 cells/well in 100 μL of DMEM containing 4.5 g/L glucose and supplemented with penicillin/streptomycin, 2 mM GlutaMAX and 10 % dialyzed fetal bovine serum. The plates were incubated for 24 h at 37 °C and 7.3 % CO2 in a humidified atmosphere. After incubation, using Fugene® 4 K (0.46 μL/well, Promega, Illkirch, France), the cells were transiently transfected with pcDNA3-hTAS1R1-WT (60 ng/well) or TAS1R1 mutants, pcDNA4-rTAS1R3 (60 ng/well), pcDNA3-Gα15i2 (10 ng/well), and pGP-CMV-GCaMP6s (Addgene #40753; 10 ng/well) as a genetically encoded calcium indicator. Twenty-four hours after transfection, the HEK293T/17 cells were rinsed with 100 μL of C1 buffer (130 mM NaCl, 5 mM KCl, 10 mM HEPES, 2 mM CaCl2, and 5 mM sodium pyruvate, pH 7.4). For each molecule tested, a semi-logarithmic concentration range was created consisting of seven increasing concentrations and a negative control (zero dose) made of buffer C1. Binary mixtures with different molecules were also made to study potential synergy. In this case, the concentration range was tested in C1 buffer containing the other molecules to be tested. The concentration ranges varied depending on the molecule, its solubility, and its effectiveness in activating the receptor. All the solutions were made on the day of the test to prevent any oxidation of the compounds. If needed, the pH of each solution was adjusted by to pH 7.4 by adding NaOH. After 20 s of basal fluorescence calcium measurement, the cells were stimulated via automatic injection of a range of compounds in eight wells, and the signal emission was recorded for an additional 70 s, via a FlexStation 3® fluorometric microplate reader (Molecular Devices, San Jose, CA, USA). As a control, molecules were also tested on mock-transfected cells with the empty vector. The emitted fluorescence was measured at a wavelength of 510 nm after excitation at 488 nm. Each measurement was performed in duplicate on the same plate, and the experiments were carried out at least four times. Kinetic data were acquired via SoftMax Pro 5.4.6 software (Molecular Devices). For each well, the decrease in the raw fluorescence as the relative fluorescence changed was calculated as ΔF/F0. Replicates were averaged for the wells subjected to the same stimuli, the background signal was subtracted, and the fluorescence changes in mock-transfected cells were subtracted. The half-maximal effective concentration (EC50) and maximal signal amplitude (max ∆F/F0) were calculated via non-linear regression of the sigmoidal function four-parameter logistic equation [f(x) = min + (max − min)/(1 + (x/EC50)^nH)] via SigmaPlot 15.0 software (Grafiti LLC, Palo Alto, CA, USA). […] For a clearer understanding of the results, the amplitude values in certain dose-response curves were normalized to max ∆F/F0 = 1, to eliminate the differences in amplitude.
We also selected other residues surrounding the cavity that differed from species to species and were not directly involved in ligand binding but rather in dynamic phenomena resulting in signal transmission, namely, four residues located less deep in the binding cavity that we mutated to their human counterparts (Y281H, S282A, P67S, L72W) (Mut2) (Fig. S3). Finally, we targeted positions at the interface between the VFTs of TAS1R1 and TAS1R3. […] A double mutant (E221Q and R173L) (Mut3) was thus created. For each group, we constructed multisite mutants (penta-, quadruple-, or double-mutants) to assess their combined effects efficiently.

As for `N[C@@H](CCC(=O)N[C@@H](CS)C(=O)NCC(=O)O)C(=O)O` [GSH, γ-L-glutamyl-L-cysteinyl-glycine], the EC50 was 9.01 ± 0.697 mM. For the setting “Mut1”, the “effect of the added compound on the response to L-Glu” value is “increased” and the “response to the agonist alone” value is on record as “reduced”.

`N[C@@H](CCC(=O)O)C(=O)O` [L-Glu, L-glutamic acid, reference compound]: under “Mut1”, the “response to the agonist alone” value is recorded as “responded”.

Turning to `CCCC(CCC)NC(=O)c1ccc2c(c1)OCO2` [S807, N-(heptan-4-yl)benzo[d][1,3]dioxole-5-carboxamide, reference compound], the EC50 worked out at 0.00169 ± 0.0001 mM. Moreover, the “response to the agonist alone” value (Mut1) is on record as “unaffected”.
